Test results reported in patent US9345704B2, “Materials and methods for suppressing and/or treating neurofibroma and related tumors” (Indiana University Research and Technology Corp., priority 2008, dated 2016).
Counter-ions that a name gives are not always drawn.

System: trigeminal plexiform neurofibroma
Test: Compassionate use treatment with imatinib mesylate of a child presenting with a plexiform neurofibroma (MRI)
Type: in vivo, human
Text: Plexiform neurofibromas primarily present in infants and young children with NF1 are frequently characterized by rapid growth and invasion into adjacent organs often resulting in impairment of normal organ function. In addition, these tumors have a high likelihood of progressing to malignancy for which there is no cure.

`Cc1ccc(NC(=O)c2ccc(CN3CCN(C)CC3)cc2)cc1Nc1nccc(-c2cccnc2)n1` [imatinib mesylate, 4-(4-methylpiperazin-1-ylmethyl)-N-[4-methyl-3-(4-(pyridin-3-yl)pyrimidin-2-ylamino)phenyl]-benzamide] was tested, and the side effects (NF1 patient, 350 mg/m2/dose, treatment for six months) was “no observed side effects”, the “tumor size (coronal MRI)” value (before vs 6 months following treatment) was “profound decrease in tumor size” and the “upper airway (axial MRI)” value (before vs after 6 months of treatment) was “marked improvement with airway enlargement”. For the same compound, the “recurrence of symptoms off treatment” value (off treatment for six months after six months of treatment) was “without a recurrence of symptoms”.
